ChEMBL document CHEMBL3885881, “DrugMatrix”

Species: Rattus norvegicus
Test: DrugMatrix - Regimen: Daily Repeat
Type: toxicity, organism-based, Sprague-Dawley
Parameters: regimen Daily Repeat, gender Male, age 6-8 weeks
Settings: in vivo, po, route oral GAVAGE, […]; for ABSOLUTE BASOPHIL / BASOPHIL / NUCLEATED RED BLOOD CELLS / ABSOLUTE EOSINOPHIL / ABSOLUTE LYMPHOCYTE / ABSOLUTE MONOCYTE / ABSOLUTE SEGMENTED NEUTROPHIL / EOSINOPHIL / ERYTHROCYTE COUNT / HEMATOCRIT / HEMOGLOBIN / LEUKOCYTE COUNT / LYMPHOCYTE / MEAN CORPUSCULAR HEMOGLOBIN / MEAN CORPUSCULAR HEMOGLOBIN CONCENTRATION / MEAN CORPUSCULAR VOLUME / MONOCYTE / NEUTROPHIL / PLATELET COUNT: tissue Blood; for TOTAL BILIRUBIN / ALANINE AMINOTRANSFERASE / ALBUMIN / ALKALINE PHOSPHATASE / ASPARTATE AMINOTRANSFERASE / BLOOD UREA NITROGEN / CARBON DIOXIDE / CHLORIDE / CHOLESTEROL / CREATINE PHOSPHOKINASE / CREATININE / GLUCOSE / LACTATE DEHYDROGENASE / LIPASE / PHOSPHORUS / POTASSIUM / SODIUM / TOTAL PROTEIN / URIC ACID: tissue Plasma
[1] = 0 mg/kg, 72 h, dose level Control, time 3 day
[2] = 0 mg/kg, 120 h, dose level Control, time 5 day
[3] = 10 mg/kg, 72 h, dose level Low, time 3 day
[4] = 10 mg/kg, 120 h, dose level Low, time 5 day
[5] = 25 mg/kg, 72 h, dose level Low, time 3 day
[6] = 25 mg/kg, 120 h, dose level Low, time 5 day

With `COc1ccc2cc([C@H](C)C(=O)O)ccc2c1` [NAPROXEN] the “ABSOLUTE BASOPHIL” value [1] was 0 CELLS/uL, the BASOPHIL [1] was 0% and the “NUCLEATED RED BLOOD CELLS” value [1] was 0 /100WBC. For the same compound, the “TOTAL BILIRUBIN” value [1] was 0.2 mg/dL, the “ABSOLUTE BASOPHIL” value [2] was 0 CELLS/uL and the BASOPHIL [2] was 0%. The “ABSOLUTE BASOPHIL” value [3] was 0 CELLS/uL, the “ABSOLUTE EOSINOPHIL” value [3] was 0 CELLS/uL and the “ABSOLUTE LYMPHOCYTE” value [3] was 16953.33 CELLS/uL. The “ABSOLUTE MONOCYTE” value [3] was 484 CELLS/uL, the “ABSOLUTE SEGMENTED NEUTROPHIL” value [3] was 1296 CELLS/uL and the BASOPHIL [3] was 0%. For the same compound, the EOSINOPHIL [3] was 0%, the “ERYTHROCYTE COUNT” value [3] was 5.66 x10E6/uL and the HEMATOCRIT [3] was 36.03%. The HEMOGLOBIN [3] was 14.13 G/DL, the “LEUKOCYTE COUNT” value [3] was 18.73 x10E3/uL and the LYMPHOCYTE [3] was 90.67%. The “MEAN CORPUSCULAR HEMOGLOBIN” value [3] was 25.03 pg, the “MEAN CORPUSCULAR HEMOGLOBIN CONCENTRATION” value [3] was 39.23 G/DL and the “MEAN CORPUSCULAR VOLUME” value [3] was 63.73 fL. The MONOCYTE [3] was 2.67%, the NEUTROPHIL [3] was 6.67% and the “NUCLEATED RED BLOOD CELLS” value [3] was 0.33 /100WBC. The “PLATELET COUNT” value [3] was 1140 x10E3/uL, the “ALANINE AMINOTRANSFERASE” value [3] was 66 u/L and the ALBUMIN [3] was 3.9 G/DL. The “ALKALINE PHOSPHATASE” value [3] was 469.67 u/L, the “ASPARTATE AMINOTRANSFERASE” value [3] was 84 u/L and the “BLOOD UREA NITROGEN” value [3] was 9.67 mg/dL. The “CARBON DIOXIDE” value [3] was 20.33 mmol/L, the CHLORIDE [3] was 103.67 MEQ/L and the CHOLESTEROL [3] was 54.33 mg/dL. For the same compound, the “CREATINE PHOSPHOKINASE” value [3] was 295.33 u/L, the CREATININE [3] was 0.19 mg/dL and the GLUCOSE [3] was 187.67 mg/dL. For the same compound, the “LACTATE DEHYDROGENASE” value [3] was 313.33 u/L, the LIPASE [3] was 9.33 u/L and the PHOSPHORUS [3] was 12.03 mg/dL. The POTASSIUM [3] was 6.09 MEQ/L, the SODIUM [3] was 143.67 MEQ/L and the “TOTAL BILIRUBIN” value [3] was 0.1 mg/dL. For the same compound, the “TOTAL PROTEIN” value [3] was 5.87 G/DL, the “URIC ACID” value [3] was 2.03 mg/dL and the “ABSOLUTE BASOPHIL” value [4] was 0 CELLS/uL. The “ABSOLUTE EOSINOPHIL” value [4] was 321 CELLS/uL, the “ABSOLUTE LYMPHOCYTE” value [4] was 16605.33 CELLS/uL and the “ABSOLUTE MONOCYTE” value [4] was 680 CELLS/uL. For the same compound, the “ABSOLUTE SEGMENTED NEUTROPHIL” value [4] was 1493.67 CELLS/uL, the BASOPHIL [4] was 0% and the EOSINOPHIL [4] was 2%. For the same compound, the “ERYTHROCYTE COUNT” value [4] was 5.33 x10E6/uL, the HEMATOCRIT [4] was 34.4% and the HEMOGLOBIN [4] was 13.33 G/DL. For the same compound, the “LEUKOCYTE COUNT” value [4] was 19.1 x10E3/uL, the LYMPHOCYTE [4] was 86.33% and the “MEAN CORPUSCULAR HEMOGLOBIN” value [4] was 25.23 pg. The “MEAN CORPUSCULAR HEMOGLOBIN CONCENTRATION” value [4] was 38.8 G/DL, the “MEAN CORPUSCULAR VOLUME” value [4] was 65 fL and the MONOCYTE [4] was 3.67%. The NEUTROPHIL [4] was 8%, the “NUCLEATED RED BLOOD CELLS” value [4] was 0 /100WBC and the “PLATELET COUNT” value [4] was 1322.33 x10E3/uL. For the same compound, the “ALANINE AMINOTRANSFERASE” value [4] was 109.67 u/L, the ALBUMIN [4] was 3.7 G/DL and the “ALKALINE PHOSPHATASE” value [4] was 463.67 u/L. For the same compound, the “ASPARTATE AMINOTRANSFERASE” value [4] was 145.33 u/L, the “BLOOD UREA NITROGEN” value [4] was 8.33 mg/dL and the “CARBON DIOXIDE” value [4] was 19.33 mmol/L. For the same compound, the CHLORIDE [4] was 104 MEQ/L, the CHOLESTEROL [4] was 40.33 mg/dL and the “CREATINE PHOSPHOKINASE” value [4] was 1655.33 u/L. For the same compound, the CREATININE [4] was 0.18 mg/dL, the GLUCOSE [4] was 252 mg/dL and the “LACTATE DEHYDROGENASE” value [4] was 400 u/L. The LIPASE [4] was 9 u/L, the PHOSPHORUS [4] was 14.07 mg/dL and the POTASSIUM [4] was 6.26 MEQ/L. For the same compound, the SODIUM [4] was 143.27 MEQ/L, the “TOTAL BILIRUBIN” value [4] was 0.17 mg/dL and the “TOTAL PROTEIN” value [4] was 5.4 G/DL. The “URIC ACID” value [4] was 3.1 mg/dL.
In the case of `O=c1ccc2ccccc2o1` [COUMARIN], the “ABSOLUTE BASOPHIL” value [5] is reported as 0 CELLS/uL, the “ABSOLUTE EOSINOPHIL” value [5] is reported as 0 CELLS/uL and the “ABSOLUTE LYMPHOCYTE” value [5] is reported as 13415.67 CELLS/uL. The “ABSOLUTE MONOCYTE” value [5] was 244.67 CELLS/uL, the “ABSOLUTE SEGMENTED NEUTROPHIL” value [5] was 973 CELLS/uL and the BASOPHIL [5] was 0%. For the same compound, the EOSINOPHIL [5] was 0%, the “ERYTHROCYTE COUNT” value [5] was 5.76 x10E6/uL and the HEMATOCRIT [5] was 36.97%. The HEMOGLOBIN [5] was 14.6 G/DL, the “LEUKOCYTE COUNT” value [5] was 14.63 x10E3/uL and the LYMPHOCYTE [5] was 92%. For the same compound, the “MEAN CORPUSCULAR HEMOGLOBIN” value [5] was 25.4 pg, the “MEAN CORPUSCULAR HEMOGLOBIN CONCENTRATION” value [5] was 39.5 G/DL and the “MEAN CORPUSCULAR VOLUME” value [5] was 64.27 fL. For the same compound, the MONOCYTE [5] was 1.67%, the NEUTROPHIL [5] was 6.33% and the “NUCLEATED RED BLOOD CELLS” value [5] was 0 /100WBC. For the same compound, the “PLATELET COUNT” value [5] was 1015 x10E3/uL, the “ALANINE AMINOTRANSFERASE” value [5] was 75 u/L and the ALBUMIN [5] was 4.13 G/DL. The “ALKALINE PHOSPHATASE” value [5] was 469.67 u/L, the “ASPARTATE AMINOTRANSFERASE” value [5] was 106.33 u/L and the “BLOOD UREA NITROGEN” value [5] was 10.67 mg/dL. The “CARBON DIOXIDE” value [5] was 33.67 mmol/L, the CHLORIDE [5] was 101.67 MEQ/L and the CHOLESTEROL [5] was 71.67 mg/dL. For the same compound, the “CREATINE PHOSPHOKINASE” value [5] was 272.67 u/L, the CREATININE [5] was 0.12 mg/dL and the GLUCOSE [5] was 148 mg/dL. The “LACTATE DEHYDROGENASE” value [5] was 117 u/L, the LIPASE [5] was 13.67 u/L and the PHOSPHORUS [5] was 11.83 mg/dL. For the same compound, the POTASSIUM [5] was 6.75 MEQ/L, the SODIUM [5] was 146.1 MEQ/L and the “TOTAL BILIRUBIN” value [5] was 0.13 mg/dL. The “TOTAL PROTEIN” value [5] was 5.1 G/DL, the “URIC ACID” value [5] was 1.27 mg/dL and the “ABSOLUTE BASOPHIL” value [6] was 0 CELLS/uL. For the same compound, the “ABSOLUTE EOSINOPHIL” value [6] was 0 CELLS/uL, the “ABSOLUTE LYMPHOCYTE” value [6] was 11975.33 CELLS/uL and the “ABSOLUTE MONOCYTE” value [6] was 0 CELLS/uL. The “ABSOLUTE SEGMENTED NEUTROPHIL” value [6] was 1091.33 CELLS/uL, the BASOPHIL [6] was 0% and the EOSINOPHIL [6] was 0%. The “ERYTHROCYTE COUNT” value [6] was 5.78 x10E6/uL, the HEMATOCRIT [6] was 36.27% and the HEMOGLOBIN [6] was 14.1 G/DL. The “LEUKOCYTE COUNT” value [6] was 13.07 x10E3/uL, the LYMPHOCYTE [6] was 91.33% and the “MEAN CORPUSCULAR HEMOGLOBIN” value [6] was 24.4 pg. The “MEAN CORPUSCULAR HEMOGLOBIN CONCENTRATION” value [6] was 38.9 G/DL, the “MEAN CORPUSCULAR VOLUME” value [6] was 62.7 fL and the MONOCYTE [6] was 0%. The NEUTROPHIL [6] was 8.67%, the “NUCLEATED RED BLOOD CELLS” value [6] was 0 /100WBC and the “PLATELET COUNT” value [6] was 1251 x10E3/uL. For the same compound, the “ALANINE AMINOTRANSFERASE” value [6] was 69 u/L, the ALBUMIN [6] was 4.17 G/DL and the “ALKALINE PHOSPHATASE” value [6] was 466 u/L. For the same compound, the “ASPARTATE AMINOTRANSFERASE” value [6] was 95.67 u/L, the “BLOOD UREA NITROGEN” value [6] was 13.33 mg/dL and the “CARBON DIOXIDE” value [6] was 27 mmol/L. The CHLORIDE [6] was 102.67 MEQ/L, the CHOLESTEROL [6] was 64.33 mg/dL and the “CREATINE PHOSPHOKINASE” value [6] was 297 u/L. For the same compound, the CREATININE [6] was 0.17 mg/dL, the GLUCOSE [6] was 157.33 mg/dL and the “LACTATE DEHYDROGENASE” value [6] was 402.33 u/L. It also gave an LIPASE [6] of 12.33 u/L, a PHOSPHORUS [6] of 12 mg/dL and a POTASSIUM [6] of 6.55 MEQ/L. For the same compound, the SODIUM [6] was 143.47 MEQ/L, the “TOTAL BILIRUBIN” value [6] was 0.23 mg/dL and the “TOTAL PROTEIN” value [6] was 5.73 G/DL. The “URIC ACID” value [6] was 1.8 mg/dL.
